Our source for the viability and inhibition values is publication PMC9751290, “Design, synthesis, in vitro, in silico, and SAR studies of flavone analogs towards anti-dengue activity” (Scientific Reports, 2022).

Data set [1] can be described thus: Cellular toxicity in LLC/MK2 cells (MTS assay). The settings on record: rhesus monkey. The format is cell-based. How it is done:
Cytotoxicity of the compounds was also accessed at the concentration of 10 µM in parallel with the viral inhibition screening. LLC/MK2 cells (1 × 10^4) were seeded in 96-well plate and incubated at 37 °C under 5% CO2 overnight; compounds were added after 24 h, and then incubated for 2 days. DMSO at 1% was used as mock treatment. Cytotoxicity was measured using CellTiter 96® Aqueous One Solution Cell Proliferation Assay (MTS) kit (Promega, Wisconsin-Madison, WI, USA) according to the manufacturer’s instruction and analyzed by EnSight Multimode Plate Reader spectrophotometry at A450nm. (Perkin Elmer, Waltham, MA, USA).
In general terms: Tetrazolium dyes change colour on reduction, which living cells bring about.

The next data set concerns DENV2 NGC. Kind of data set: Screening antiviral efficacy: viral inhibition at 10 µM in DENV2-infected LLC/MK2 cells, plaque titration. The following applies: Dengue virus. The format is cell-based, DENV2 (New Guinea C strain). As to the method:
The flavone analogs were preliminary screened for their viral inhibitory activity against DENV2 NGC (accession number NC_001474.2) in a LLC/MK2 (ATCC CCL-7™) cell-based system at the final concentration of 10 μM. […] On the other hand, the acylation of the hydroxy groups on the A-ring yielded mixed results.
LLC/MK2 cells (5 × 10^4) were seeded in 24-well plate and incubate at 37 °C under 5% CO2 overnight. Cells were infected with DENV2 NGC at a multiplicity of infection (M.O.I. of 0.1) and compounds at 10 µM were added and DMSO at 1% was used as control. Cultured plates were incubated for 1 h with gentle rocking every 15 min. Cells were washed with PBS, MEM supplemented with 1% FBS, 100 I.U./mL penicillin, and 100 µg/mL streptomycin, 10 mM HEPES was added in a presence of a compound at 10 µM. Cells were incubated at 37 °C with 5% CO2 for 3 days. Supernatants were collected to determine viral titers by plaque titration assay as previously described. The selected compounds were further analyzed for an effective concentration (EC50).

The mark [2] stands for this setting: DENV2, LLC-MK2, read-out: %Inhibition (%viral inhibition against DENV2).
Setting [3] is: 10 μM, read-out: %Viability in LLC/MK2 cell.
Setting [4] is: 10 μM, DENV2 NGC-infected LLC/MK2 cells, NA = not active, read-out: %Inhibition (%viral inhibition against DENV2).

Where two headings read alike, the source gives them in different places.

One may read the inhibition as the share of the control response that was lost under treatment. Turning to `COc1ccc2c(=O)cc(-c3ccccc3)oc2c1` [2b, 7-Methoxyflavone], the viability at 2 days, 10 µM in data set [1] worked out at 84.5 ± 3.34%. In the data set with DENV2 NGC (setting [2]), the inhibition at 10 µM worked out at 37.5%.
In the same order, the values of `COc1ccc2oc(-c3ccccc3)cc(=O)c2c1` [1b, 6-Methoxyflavone] are 95.2 ± 8.12% and 77%.
Turning to `Nc1ccc(-c2cc(=O)c3c(O)c(O)c(O)cc3o2)cc1` [5o, 4′-Amino-5,6,7-trihydroxyflavone], the viability at 2 days, 10 µM in data set [1] was 109 ± 2.53%.
With `O=c1cc(-c2ccccc2)oc2c([N+](=O)[O-])c(O)cc(O)c12` [4e, 5,7-Dihydroxy-8-nitroflavone], the viability at 2 days, 10 µM in data set [1] (setting [3]) was determined as 52.5 ± 2.59%. For the same compound, the inhibition at 10 µM in the data set on DENV2 NGC (setting [2]) turned out to be 33.3%.
`CCC(=O)Oc1ccc2c(=O)cc(-c3ccccc3)oc2c1` [2c, 7-Propionoxyflavone]: the viability at 2 days, 10 µM in data set [1] turned out to be 115 ± 1.55%. Also, the inhibition at 10 µM with DENV2 NGC (setting [4]) was 37.5%.
For `COc1cc(O)c2c(=O)cc(-c3ccccc3)oc2c1` [4b, 5-Hydroxy-7-methoxyflavone], the viability at 2 days, 10 µM in data set [1] stood at 97.5 ± 1%. The inhibition at 10 µM with DENV2 NGC (setting [4]) is 16.7%.
As to `O=c1cc(-c2ccccc2)oc2ccc(O)cc12` [1a, 6-hydroxyflavone], the viability at 2 days, 10 µM in data set [1] worked out at 69.5 ± 14.3%. The inhibition at 10 µM in the data set with DENV2 NGC (setting [4]) was determined as 90%.
Consider `O=c1cc(-c2ccccc2)oc2c3c(ccc12)OCO3` [3b, 7,8-Dioxoloflavone], for which the viability at 2 days, 10 µM in data set [1] came to 96.6 ± 1.01%.
Turning to `O=c1cc(-c2ccccc2)oc2cc(O)ccc12` [2a, 7-hydroxyflavone], the viability at 2 days, 10 µM in data set [1] (setting [3]) was 122 ± 7.21%. For the same compound, the inhibition at 10 µM in the data set on DENV2 NGC (setting [4]) is 37.5%.
As to `Nc1c(O)cc(O)c2c(=O)cc(-c3ccccc3)oc12` [4f, 8-Amino-5,7-dihydroxyflavone], the viability at 2 days, 10 µM in data set [1] turned out to be 93.4 ± 3.29%.
For the compound `COc1cc2oc(-c3ccc([N+](=O)[O-])cc3)cc(=O)c2c(OC)c1OC` [5k, 5,6,7-Trimethoxy-4′-nitroflavone], the viability at 2 days, 10 µM in data set [1] was 101 ± 1.97%. Also, in the data set on DENV2 NGC (setting [4]), the inhibition at 10 µM amounted to 70%.
With `O=c1cc(-c2ccccc2)oc2cc(OCc3ccccc3)cc(O)c12` [4c, 7-Benzyloxy-5-hydroxyflavone], the viability at 2 days, 10 µM in data set [1] is 86.1 ± 3.05%.
Turning to `O=c1cc(-c2ccccc2)oc2c(O)c(O)ccc12` [3a, 7,8-dihydroxyflavone], the viability at 2 days, 10 µM in data set [1] (setting [3]) worked out at 79.4 ± 3.2%. In the data set on DENV2 NGC (setting [2]), the inhibition at 10 µM was found to be 58.3%.
As to `COc1cc2oc(-c3ccc(N)cc3)cc(=O)c2c(OC)c1OC` [5l, 4′-Amino-5,6,7-trimethoxyflavone], the viability at 2 days, 10 µM in data set [1] amounted to 93 ± 2.36%. For the same compound, the inhibition at 10 µM in the data set with DENV2 NGC (setting [4]) came to 62%.
On to `COc1cc2oc(-c3ccc(Br)cc3)cc(=O)c2c(O)c1OC` [5p, 4′-Bromo-5-hydroxy-6,7-dimethoxyflavone], for which the viability at 2 days, 10 µM in data set [1] amounted to 96.8 ± 5.28%. Further, the inhibition at 10 µM in the data set with DENV2 NGC (setting [4]) came out at 64.8%.
The matching figures for `COc1cc2oc(-c3ccccc3)cc(=O)c2c(O)c1OC` [5b, 5-Hydroxy-6,7-dimethoxyflavone]: 97.5 ± 2.47% and 80%.
Consider `COc1cc2oc(-c3ccc(Br)cc3)cc(=O)c2c(OC)c1OC` [5j, 4′-Bromo-5,6,7-trimethoxylflavone], for which the viability at 2 days, 10 µM in data set [1] was 101 ± 11.1%. For the same compound, in the data set on DENV2 NGC (setting [4]), the inhibition at 10 µM came to 70.4%.
The matching figures for `CCC(=O)Oc1ccc2oc(-c3ccccc3)cc(=O)c2c1` [1c, 6-Propionoxyflavone]: 89.18 ± 0.78% and 73%.
In the same order, the values of `O=c1cc(-c2ccccc2)oc2cc(O)cc(O)c12` [4a, chrysin] are 84.8 ± 2.03% and 16.7%.
The matching figures for `COc1cc2oc(-c3ccccc3)cc(=O)c2c(OC)c1OC` [5i, 5,6,7-Trimethoxyflavone]: 96.8 ± 11.9% and 44.4%.
